Results published in publication PMC9250534, “Synthesis and direct assay of large macrocycle diversities by combinatorial late-stage modification at picomole scale” (Nature Communications, 2022).
Numbered stars: 1 amine (or outer) side, 2 acyl side, 3 side chain; on linkers, the order of the positions; unused ones are H or OH. Bridge positions count the residues as written; N and C are the ends. Square brackets hold non-standard residues; d marks the D form. Peptide text beside a SMILES is read from it. * marks the point of attachment. ξ: configuration not given here. ξPro(4-NHCO(5-Cl-2-thienyl)) = O=C(NC1CNC(C(=O)O)C1)c1ccc(Cl)s1; ξPro(4ξ-NHCOC6H4-4-Cl) = O=C(NC1CNC(C(=O)O)C1)c1ccc(Cl)cc1; Pyrazinoyl(5-oxo-4H) = O=C(c1c[nH]c(=O)cn1)*; Phenylacetyl(4-Cl) = O=C(Cc1ccc(Cl)cc1)*; Benzoyl(3-Cl) = O=C(c1cccc(Cl)c1)*; Benzoyl(4-Cl) = O=C(c1ccc(Cl)cc1)*; Benzoyl(3-OH) = O=C(c1cccc(O)c1)*; Pyrazinecarbonyl = O=C(c1cnccn1)*; X14 = O=C(C1(c2ccccc2)CCCCC1)*; X4 = O=C(c1cccc2c1OC(F)(F)O2)*; Cysteamide = C(CS[*:3])N[*:1]; X3 = O=C(Cc1c[nH]c2ccccc12)*; X1 = O=C(/C=C/c1ccccc1)*; Api = NC1(C(=O)O)CCNCC1; Dap = NC[CH](N)C(=O)O; X2 = O=C(C=Cc1ccccc1)*; Mpa = O=C(O)CCS

Target: MDM2 (Homo sapiens, UniProt Q00987)
Sequence (Q00987 whole entry): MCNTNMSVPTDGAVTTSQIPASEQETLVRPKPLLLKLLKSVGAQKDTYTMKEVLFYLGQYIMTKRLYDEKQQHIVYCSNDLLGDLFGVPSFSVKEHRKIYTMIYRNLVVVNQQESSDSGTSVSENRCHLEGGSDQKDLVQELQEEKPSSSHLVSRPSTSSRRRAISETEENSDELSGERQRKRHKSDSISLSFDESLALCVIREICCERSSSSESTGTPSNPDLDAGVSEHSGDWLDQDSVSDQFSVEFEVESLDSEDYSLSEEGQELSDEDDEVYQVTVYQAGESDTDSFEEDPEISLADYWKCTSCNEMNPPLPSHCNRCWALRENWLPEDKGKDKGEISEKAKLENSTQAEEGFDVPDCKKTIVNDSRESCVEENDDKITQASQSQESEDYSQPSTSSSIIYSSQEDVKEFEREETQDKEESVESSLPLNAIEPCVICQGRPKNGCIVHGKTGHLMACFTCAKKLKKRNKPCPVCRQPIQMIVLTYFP
Test: MDM2 binding screen: displacement of fluorescent p53 peptide probe FP53 (fluorescence polarization)
Conditions: for fraction fluorescent probe displaced, Screen: initial screen; for fraction fluorescent probe displaced, Screen / fraction fluorescent probe displaced, Replicate: crude macrocycle reactions; for fraction fluorescent probe displaced: 10 µM macrocycle concentration, crude acylated macrocycle (scaffold Mpa-AA1-AA2-AA3 x carboxylic acid), p53-based fluorescent peptide, human MDM2
Summary of the method: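 Macrocycle reaction products at a final 10 µM were tested for displacement of a p53-based fluorescent peptide from human MDM2. Fluorescence anisotropy (ex 485/em 535 nm) was read once per macrocycle at 25 °C.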

O=C(NC1CC2C(=O)NC(Cc3c[nH]c4ccccc34)C(=O)NCCSSCCC(=O)N3CCCC3C(=O)N2C1)c1ccc(Cl)s1 (centres unmarked) [X B1 D5 W Acid 14] ([Mpa]P[ξPro(4-NHCO(5-Cl-2-thienyl))]W-Cysteamide; disulfide 1-C; configuration not given here)
fraction fluorescent probe displaced, Screen (Acid 14): 0.28
fraction fluorescent probe displaced, Replicate (Acid 14): 0.0465

O=C(/C=C/c1ccccc1)NC[C@@H]1NC(=O)c2cccc(c2)CNC(=O)[C@H](Cc2ccccc2)NC(=O)CCSSCCNC1=O [X F B5 D3 Acid 91]
fraction fluorescent probe displaced, Screen (Acid 91): -0.05
fraction fluorescent probe displaced, Replicate (Acid 91): 0.04

O=C(C=Cc1ccccc1)NC1CC2C(=O)NC(Cc3c[nH]c4ccccc34)C(=O)NCCSSCCC(=O)NCc3cccc(c3)C(=O)N2C1 (centres unmarked) [X B5 D5 W Acid 91]
fraction fluorescent probe displaced, Screen (Acid 91): -0.13
fraction fluorescent probe displaced, Replicate (Acid 91): 0.0168

O=C1CCSSCCNC(=O)[C@H](Cc2ccccc2)NC(=O)[C@H](CNC(=O)c2ccc(Cl)cc2)NC(=O)c2cccc(c2)CN1 [X B5 D3 F Acid 25]
fraction fluorescent probe displaced, Screen (Acid 25): 0.0244
fraction fluorescent probe displaced, Replicate (Acid 25): 0.10

O=C(/C=C/c1ccccc1)NC[C@@H]1NC(=O)[C@@H]2CCCN2C(=O)[C@H](Cc2c[nH]c3ccccc23)NC(=O)CCSSCCNC1=O [X W B1 D3 Acid 91] ([Mpa]WP[Dap](X1)-Cysteamide; disulfide 1-C)
fraction fluorescent probe displaced, Screen (Acid 91): 0.19
fraction fluorescent probe displaced, Replicate (Acid 91): 0.12

O=C1NCCSSCCC(=O)N2CCC[C@H]2C(=O)N[C@@H](CNC(=O)C2(c3ccccc3)CCCCC2)C(=O)N[C@H]1Cc1ccccc1 [X-B1-D3-F + A98] ([Mpa]P[Dap](X14)F-Cysteamide; disulfide 1-C)
fraction fluorescent probe displaced: 0.6432

O=C1CCSSCCNC(=O)C2CC(NC(=O)c3ccc(Cl)cc3)CN2C(=O)C2CCCN2C(=O)C(Cc2c[nH]c3ccccc23)N1 (centres unmarked) [X W B1 D5 Acid 25] ([Mpa]WP[ξPro(4ξ-NHCOC6H4-4-Cl)]-Cysteamide; disulfide 1-C; configuration not given here)
fraction fluorescent probe displaced, Screen (Acid 25): 0.15
fraction fluorescent probe displaced, Replicate (Acid 25): 0.17

O=C1NC2(CCN(C(=O)c3ccc(Cl)cc3)CC2)C(=O)NCCSSCCC(=O)N2CCC[C@H]2C(=O)N[C@H]1Cc1ccccc1 [X B1 F D6 Acid 25] ([Mpa]PF[Api](Benzoyl(4-Cl))-Cysteamide; disulfide 1-C)
fraction fluorescent probe displaced, Screen (Acid 25): 0.09
fraction fluorescent probe displaced, Replicate (Acid 25): 0.15

O=C(/C=C/c1ccccc1)NC[C@@H]1NC(=O)[C@@H]2CCCN2C(=O)CCSSCCNC(=O)[C@H](Cc2c[nH]c3ccccc23)NC1=O [X B1 D3 W Acid 91] ([Mpa]P[Dap](X1)W-Cysteamide; disulfide 1-C)
fraction fluorescent probe displaced, Screen (Acid 91): 0.11
fraction fluorescent probe displaced, Replicate (Acid 91): 0.07

O=C1CCNC(=O)C(Cc2c[nH]c3ccccc23)NC(=O)C2CC(NC(=O)c3ccc(Cl)s3)CN2C(=O)CCSSCCN1 (centres unmarked) [X D5 W B2 Acid 14]
fraction fluorescent probe displaced, Screen (Acid 14): 0.17
fraction fluorescent probe displaced, Replicate (Acid 14): 0.17

O=C(NC[C@@H]1NC(=O)[C@@H]2CCCN2C(=O)CCSSCCNC(=O)[C@H](Cc2c[nH]c3ccccc23)NC1=O)c1c[nH]c(=O)cn1 [X-B1-D3-W + A9] ([Mpa]P[Dap](Pyrazinoyl(5-oxo-4H))W-Cysteamide; disulfide 1-C)
fraction fluorescent probe displaced: 0.06006

O=C1CCNC(=O)C2CN(C(=O)c3ccc(Cl)s3)CCN2C(=O)CCSSCCNC(=O)C(Cc2c[nH]c3ccccc23)N1 (centres unmarked) [X D7 B2 W Acid 14]
fraction fluorescent probe displaced, Screen (Acid 14): 0.11
fraction fluorescent probe displaced, Replicate (Acid 14): 0.12

O=C(/C=C/c1ccccc1)NC[C@@H]1NC(=O)[C@H](Cc2ccccc2)NC(=O)CCSSCCNC(=O)[C@H]2CCCN(C2)C1=O [X F D3 B4 Acid 91]
fraction fluorescent probe displaced, Screen (Acid 91): 0.11
fraction fluorescent probe displaced, Replicate (Acid 91): -0.0333

O=C(Cc1ccc(Cl)cc1)NC[C@@H]1NC(=O)[C@@H]2CCCN2C(=O)CCSSCCNC(=O)[C@H](Cc2c[nH]c3ccccc23)NC1=O [X-B1-D3-W + A45] ([Mpa]P[Dap](Phenylacetyl(4-Cl))W-Cysteamide; disulfide 1-C)
fraction fluorescent probe displaced: 0.08387

O=C1CCSSCCNC(=O)C2CN(C(=O)c3ccc(Cl)s3)CCN2C(=O)CCNC(=O)C(Cc2ccccc2)N1 (centres unmarked) [X F B2 D7 Acid 14]
fraction fluorescent probe displaced, Screen (Acid 14): 0.17
fraction fluorescent probe displaced, Replicate (Acid 14): 0.10

O=C1CCSSCCNC(=O)C2CN(C(=O)c3ccc(Cl)cc3)CCN2C(=O)C(Cc2ccccc2)NC(=O)c2cccc(c2)CN1 (mixture of isomers) [X B5 F D7 Acid 25]
fraction fluorescent probe displaced, Screen (Acid 25): -0.00813
fraction fluorescent probe displaced, Replicate (Acid 25): 0.17

O=C(Cc1c[nH]c2ccccc12)NC[C@@H]1NC(=O)[C@@H]2CCCN2C(=O)CCSSCCNC(=O)[C@H](Cc2c[nH]c3ccccc23)NC1=O [X-B1-D3-W + A12] ([Mpa]P[Dap](X3)W-Cysteamide; disulfide 1-C)
fraction fluorescent probe displaced: 0.1189

O=C(C=Cc1ccccc1)NC1CC2C(=O)NCCSSCCC(=O)N3CCCC(C3)C(=O)NC(Cc3c[nH]c4ccccc34)C(=O)N2C1 (centres unmarked) [X B4 W D5 Acid 91]
fraction fluorescent probe displaced, Screen (Acid 91): 0.0563
fraction fluorescent probe displaced, Replicate (Acid 91): 0.12

O=C1CCSSCCNC(=O)C2(CCN(C(=O)c3ccc(Cl)cc3)CC2)NC(=O)[C@H](Cc2c[nH]c3ccccc23)NC(=O)CCN1 [X B2 W D6 Acid 25]
fraction fluorescent probe displaced, Screen (Acid 25): 0.0244
fraction fluorescent probe displaced, Replicate (Acid 25): 0.0211

O=C(C=Cc1ccccc1)NC1CC2C(=O)NCCC(=O)NCCSSCCC(=O)NC(Cc3ccccc3)C(=O)N2C1 (centres unmarked) [X F D5 B2 Acid 91]
fraction fluorescent probe displaced, Screen (Acid 91): 0.08
fraction fluorescent probe displaced, Replicate (Acid 91): 0.0168

O=C1NC2(CCN(C(=O)C=Cc3ccccc3)CC2)C(=O)NCCSSCCC(=O)N2CCCC2C(=O)NC1Cc1ccccc1 (centres unmarked) [X B1 F D6 Acid 91] ([Mpa]PF[Api](X2)-Cysteamide; disulfide 1-C; configuration not given here)
fraction fluorescent probe displaced, Screen (Acid 91): 0.00268
fraction fluorescent probe displaced, Replicate (Acid 91): 0.04

O=C(/C=C/c1ccccc1)NC[C@@H]1NC(=O)CCNC(=O)CCSSCCNC(=O)[C@H](Cc2c[nH]c3ccccc23)NC1=O [X B2 D3 W Acid 91]
fraction fluorescent probe displaced, Screen (Acid 91): 0.27
fraction fluorescent probe displaced, Replicate (Acid 91): 0.14

O=C1CCSSCCNC(=O)[C@H]2CCCN(C2)C(=O)C2(CCN(C(=O)c3ccc(Cl)s3)CC2)NC(=O)[C@H](Cc2ccccc2)N1 [X F D6 B4 Acid 14]
fraction fluorescent probe displaced, Screen (Acid 14): 0.053
fraction fluorescent probe displaced, Replicate (Acid 14): 0.10

O=C1CCSSCCNC(=O)C2(CCN(C(=O)/C=C/c3ccccc3)CC2)NC(=O)[C@H](Cc2c[nH]c3ccccc23)NC(=O)c2cccc(c2)CN1 [X B5 W D6 Acid 91]
fraction fluorescent probe displaced, Screen (Acid 91): 0.16
fraction fluorescent probe displaced, Replicate (Acid 91): 0.17

O=C1NC(Cc2c[nH]c3ccccc23)C(=O)N2CCN(C(=O)c3ccc(Cl)cc3)CC2C(=O)NCCSSCCC(=O)N2CCCC1C2 (centres unmarked) [X B4 W D7 Acid 25]
fraction fluorescent probe displaced, Screen (Acid 25): 0.25
fraction fluorescent probe displaced, Replicate (Acid 25): 0.17

O=C(NC[C@@H]1NC(=O)[C@@H]2CCCN2C(=O)CCSSCCNC(=O)[C@H](Cc2c[nH]c3ccccc23)NC1=O)c1cnccn1 [X-B1-D3-W + A2] ([Mpa]P[Dap](Pyrazinecarbonyl)W-Cysteamide; disulfide 1-C)
fraction fluorescent probe displaced: 0.03807

O=C1CCSSCCNC(=O)C(Cc2c[nH]c3ccccc23)NC(=O)c2cccc(c2)CNC(=O)C2(CCN(C(=O)c3ccc(Cl)s3)CC2)N1 (centres unmarked) [X D6 B5 W Acid 14]
fraction fluorescent probe displaced, Screen (Acid 14): 0.23
fraction fluorescent probe displaced, Replicate (Acid 14): 0.25

O=C1CCSSCCNC(=O)[C@H](Cc2c[nH]c3ccccc23)NC(=O)[C@@H]2CCCN2C(=O)[C@H](CNC(=O)c2ccc(Cl)cc2)N1 [X D3 B1 W Acid 25] ([Mpa][Dap](Benzoyl(4-Cl))PW-Cysteamide; disulfide 1-C)
fraction fluorescent probe displaced, Screen (Acid 25): 0.28
fraction fluorescent probe displaced, Replicate (Acid 25): 0.15

O=C(NC[C@@H]1NC(=O)[C@@H]2CCCN2C(=O)CCSSCCNC(=O)[C@H](Cc2c[nH]c3ccccc23)NC1=O)c1cccc(O)c1 [X-B1-D3-W + A27] ([Mpa]P[Dap](Benzoyl(3-OH))W-Cysteamide; disulfide 1-C)
fraction fluorescent probe displaced: 0.1229

O=C(NC[C@@H]1NC(=O)[C@@H]2CCCN2C(=O)CCSSCCNC(=O)[C@H](Cc2ccccc2)NC1=O)c1cccc2c1OC(F)(F)O2 [X-B1-D3-F + A38] ([Mpa]P[Dap](X4)F-Cysteamide; disulfide 1-C)
fraction fluorescent probe displaced: 0.06653

O=C(NCC1NC(=O)C2CCCN2C(=O)CCSSCCNC(=O)C(Cc2c[nH]c3ccccc23)NC1=O)c1ccc(Cl)cc1 (centres unmarked) [X B1 D3 W Acid 25] ([Mpa]P[Dap](Benzoyl(4-Cl))W-Cysteamide; disulfide 1-C; configuration not given here)
fraction fluorescent probe displaced, Screen (Acid 25): 0.22
fraction fluorescent probe displaced, Replicate (Acid 25): 0.20

O=C(NC[C@@H]1NC(=O)[C@@H]2CCCN2C(=O)CCSSCCNC(=O)[C@H](Cc2c[nH]c3ccccc23)NC1=O)c1cccc(Cl)c1 [X-B1-D3-W + A17] ([Mpa]P[Dap](Benzoyl(3-Cl))W-Cysteamide; disulfide 1-C)
fraction fluorescent probe displaced: 0.2671

O=C1CCSSCCNC(=O)C2(CCN(C(=O)c3ccc(Cl)cc3)CC2)NC(=O)CCNC(=O)[C@H](Cc2ccccc2)N1 [X F B2 D6 Acid 25]
fraction fluorescent probe displaced, Screen (Acid 25): -0.00813
fraction fluorescent probe displaced, Replicate (Acid 25): -0.03

O=C1CCSSCCNC(=O)[C@H]2CCCN(C2)C(=O)C2(CCN(C(=O)c3ccc(Cl)cc3)CC2)NC(=O)[C@H](Cc2ccccc2)N1 [X F D6 B4 Acid 25]
fraction fluorescent probe displaced, Screen (Acid 25): -0.00813
fraction fluorescent probe displaced, Replicate (Acid 25): 0.07

O=C1NC(Cc2ccccc2)C(=O)N2CCN(C(=O)c3ccc(Cl)cc3)CC2C(=O)NCCSSCCC(=O)N2CCCC12 (centres unmarked) [X B1 F D7 Acid 25]
fraction fluorescent probe displaced, Screen (Acid 25): 0.0244
fraction fluorescent probe displaced, Replicate (Acid 25): 0.12
